Laboratory results from ChEMBL document CHEMBL3885881, “DrugMatrix”.

Species: Rattus norvegicus
Experiment: DrugMatrix - Regimen: Daily Repeat
Assay type: toxicity, organism-based, Sprague-Dawley
Parameters: regimen Daily Repeat, gender Male, age 6-8 weeks
Conditions: in vivo, po, route oral GAVAGE, vehicle 100 % SALINE; for ABSOLUTE BASOPHIL / ABSOLUTE EOSINOPHIL / ABSOLUTE LYMPHOCYTE / ABSOLUTE MONOCYTE / ABSOLUTE SEGMENTED NEUTROPHIL / BASOPHIL / EOSINOPHIL / ERYTHROCYTE COUNT / HEMATOCRIT / HEMOGLOBIN / LEUKOCYTE COUNT / LYMPHOCYTE / MEAN CORPUSCULAR HEMOGLOBIN / MEAN CORPUSCULAR HEMOGLOBIN CONCENTRATION / MEAN CORPUSCULAR VOLUME / MONOCYTE / NEUTROPHIL / NUCLEATED RED BLOOD CELLS / PLATELET COUNT: tissue Blood; for ALANINE AMINOTRANSFERASE / ALBUMIN / ALKALINE PHOSPHATASE / ASPARTATE AMINOTRANSFERASE / BLOOD UREA NITROGEN / CARBON DIOXIDE / CHLORIDE / CHOLESTEROL / CREATINE PHOSPHOKINASE / CREATININE / GLUCOSE / LACTATE DEHYDROGENASE / LIPASE / PHOSPHORUS / POTASSIUM / SODIUM / TOTAL BILIRUBIN / TOTAL PROTEIN / URIC ACID: tissue Plasma
[1] = 10 mg/kg, […], dose level Low, time 7 day
[2] = 30 mg/kg, 72 h, dose level High, time 3 day
[3] = 30 mg/kg, […], dose level High, time 7 day

O=[As][O-].[Na+] [SODIUM ARSENITE]
ABSOLUTE BASOPHIL [1]: 0 CELLS/uL | ABSOLUTE EOSINOPHIL [1]: 0 CELLS/uL | ABSOLUTE LYMPHOCYTE [1]: 8882.33 CELLS/uL | ABSOLUTE MONOCYTE [1]: 292.83 CELLS/uL | ABSOLUTE SEGMENTED NEUTROPHIL [1]: 1158.17 CELLS/uL | BASOPHIL [1]: 0% | EOSINOPHIL [1]: 0% | ERYTHROCYTE COUNT [1]: 5.16 x10E6/uL | HEMATOCRIT [1]: 33.38% | HEMOGLOBIN [1]: 13.23 G/DL | LEUKOCYTE COUNT [1]: 10.33 x10E3/uL | LYMPHOCYTE [1]: 86.17% | MEAN CORPUSCULAR HEMOGLOBIN [1]: 25.68 pg | MEAN CORPUSCULAR HEMOGLOBIN CONCENTRATION [1]: 39.65 G/DL | MEAN CORPUSCULAR VOLUME [1]: 64.67 fL | MONOCYTE [1]: 2.83% | NEUTROPHIL [1]: 11% | NUCLEATED RED BLOOD CELLS [1]: 0 /100WBC | PLATELET COUNT [1]: 1191.67 x10E3/uL | ALANINE AMINOTRANSFERASE [1]: 43 u/L | ALBUMIN [1]: 4.45 G/DL | ALKALINE PHOSPHATASE [1]: 255.83 u/L | ASPARTATE AMINOTRANSFERASE [1]: 72.83 u/L | BLOOD UREA NITROGEN [1]: 13 mg/dL | CARBON DIOXIDE [1]: 29.83 mmol/L | CHLORIDE [1]: 98.83 MEQ/L | CHOLESTEROL [1]: 69.17 mg/dL | CREATINE PHOSPHOKINASE [1]: 248.67 u/L | CREATININE [1]: 0.18 mg/dL | GLUCOSE [1]: 139.17 mg/dL | LACTATE DEHYDROGENASE [1]: 91.83 u/L | LIPASE [1]: 10.5 u/L | PHOSPHORUS [1]: 11.75 mg/dL | POTASSIUM [1]: 6.25 MEQ/L | SODIUM [1]: 143.22 MEQ/L | TOTAL BILIRUBIN [1]: 0.15 mg/dL | TOTAL PROTEIN [1]: 5.95 G/DL | URIC ACID [1]: 0.93 mg/dL | ABSOLUTE BASOPHIL [2]: 0 CELLS/uL | ABSOLUTE EOSINOPHIL [2]: 24.17 CELLS/uL | ABSOLUTE LYMPHOCYTE [2]: 11880.83 CELLS/uL | ABSOLUTE MONOCYTE [2]: 220.67 CELLS/uL | ABSOLUTE SEGMENTED NEUTROPHIL [2]: 724.33 CELLS/uL | BASOPHIL [2]: 0% | EOSINOPHIL [2]: 0.17% | ERYTHROCYTE COUNT [2]: 5.56 x10E6/uL | HEMATOCRIT [2]: 36.35% | HEMOGLOBIN [2]: 12.9 G/DL | LEUKOCYTE COUNT [2]: 12.85 x10E3/uL | LYMPHOCYTE [2]: 92.17% | MEAN CORPUSCULAR HEMOGLOBIN [2]: 23.27 pg | MEAN CORPUSCULAR HEMOGLOBIN CONCENTRATION [2]: 35.48 G/DL | MEAN CORPUSCULAR VOLUME [2]: 65.6 fL | MONOCYTE [2]: 1.83% | NEUTROPHIL [2]: 5.83% | NUCLEATED RED BLOOD CELLS [2]: 0 /100WBC | PLATELET COUNT [2]: 1116 x10E3/uL | ALANINE AMINOTRANSFERASE [2]: 34.67 u/L | ALBUMIN [2]: 3.6 G/DL | ALKALINE PHOSPHATASE [2]: 172.83 u/L | ASPARTATE AMINOTRANSFERASE [2]: 76.5 u/L | BLOOD UREA NITROGEN [2]: 11.33 mg/dL | CARBON DIOXIDE [2]: 26.83 mmol/L | CHLORIDE [2]: 102.5 MEQ/L | CHOLESTEROL [2]: 75 mg/dL | CREATINE PHOSPHOKINASE [2]: 194.17 u/L | CREATININE [2]: 0.16 mg/dL | GLUCOSE [2]: 125.67 mg/dL | LACTATE DEHYDROGENASE [2]: 103.33 u/L | LIPASE [2]: 11.83 u/L | PHOSPHORUS [2]: 9.52 mg/dL | POTASSIUM [2]: 5.42 MEQ/L | SODIUM [2]: 143 MEQ/L | TOTAL BILIRUBIN [2]: 0.18 mg/dL | TOTAL PROTEIN [2]: 5.17 G/DL | URIC ACID [2]: 0.68 mg/dL | ABSOLUTE BASOPHIL [3]: 0 CELLS/uL | ABSOLUTE EOSINOPHIL [3]: 81.83 CELLS/uL | ABSOLUTE LYMPHOCYTE [3]: 12174.33 CELLS/uL | ABSOLUTE MONOCYTE [3]: 445.83 CELLS/uL | ABSOLUTE SEGMENTED NEUTROPHIL [3]: 2681.33 CELLS/uL | BASOPHIL [3]: 0% | EOSINOPHIL [3]: 0.5% | ERYTHROCYTE COUNT [3]: 5.27 x10E6/uL | HEMATOCRIT [3]: 32.5% | HEMOGLOBIN [3]: 12.83 G/DL | LEUKOCYTE COUNT [3]: 15.38 x10E3/uL | LYMPHOCYTE [3]: 81% | MEAN CORPUSCULAR HEMOGLOBIN [3]: 24.38 pg | MEAN CORPUSCULAR HEMOGLOBIN CONCENTRATION [3]: 39.47 G/DL | MEAN CORPUSCULAR VOLUME [3]: 61.75 fL | MONOCYTE [3]: 2.67% | NEUTROPHIL [3]: 15.83% | NUCLEATED RED BLOOD CELLS [3]: 0 /100WBC | PLATELET COUNT [3]: 966.33 x10E3/uL | ALANINE AMINOTRANSFERASE [3]: 39.67 u/L | ALBUMIN [3]: 4.02 G/DL | ALKALINE PHOSPHATASE [3]: 141.83 u/L | ASPARTATE AMINOTRANSFERASE [3]: 90 u/L | BLOOD UREA NITROGEN [3]: 16 mg/dL | CARBON DIOXIDE [3]: 27 mmol/L | CHLORIDE [3]: 100.17 MEQ/L | CHOLESTEROL [3]: 65.83 mg/dL | CREATINE PHOSPHOKINASE [3]: 152.83 u/L | CREATININE [3]: 0.14 mg/dL | GLUCOSE [3]: 126.83 mg/dL | LACTATE DEHYDROGENASE [3]: 98.33 u/L | LIPASE [3]: 9.83 u/L | PHOSPHORUS [3]: 9.15 mg/dL | POTASSIUM [3]: 5.46 MEQ/L | SODIUM [3]: 142.78 MEQ/L | TOTAL BILIRUBIN [3]: 0.13 mg/dL | TOTAL PROTEIN [3]: 5.38 G/DL | URIC ACID [3]: 0.55 mg/dL
